# According to paper PMC5011342, “A high throughput drug screening assay to identify compounds that promote oligodendrocyte differentiation using acutely dissociated and purified oligodendrocyte precursor cells” (BMC Research Notes, 2016):
# Like-named read-outs stand apart in the source and are kept apart here.
# Legend:
# [1] = system: acutely dissociated and purified rat OPCs; assay: Acute OL differentiation assay (MBP expression/cell, immunofluorescent image quantification); assay type: cell-based; conditions: sheet "All OLga data"; for activation at 2 µM / activation at 10 µM / activation at 0.4 µM: Rattus norvegicus
# How it was run: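 Oligodendrocyte precursor cells were enriched from P6-P7 Sprague–Dawley rat brains by immunopanning (RAN-2 and GalC depletion, O4 selection), plated at 5000 cells/well in serum-free, mitogen-free differentiation media on PDL/laminin 96-well view plates, centrifuged at 200×g, and pre-incubated 1–2 h before test compounds were added in quadruplicate. On DIV4, cells were fixed, stained for MBP and DAPI, imaged automatically, and MBP expression per cell was quantified.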
# expanded OPCs = assay: cells; conditions: for viability at 0.1 µM / viability at 1 µM / viability at 10 µM: Rattus norvegicus, 72 h
# How it was run: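 Expanded OPCs seeded at 10,000 cells/well in differentiation media, then exposed to NCC library compounds at 10, 1 and 0.1 µM (quadruplicate, 0.1% DMSO) for three days. Viability read as alamarBlue fluorescence (560/590 nm) after 4 h at 37 °C; tunicamycin 5 ng/ml served as toxicity control.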
# [2] = 2 uM test compound, relative to quetiapine, read-out: OL differentiation, 2 uM (% Quet)
# [3] = 10 uM test compound, relative to quetiapine, read-out: OL differentiation, 10 uM (% Quet)
# [4] = read-out: 0.1 µM (% DMSO), alamarBlue viability of expanded OPCs, compound at 0.1 µM, sheet All Tox data
# [5] = read-out: 1 µM (% DMSO), alamarBlue viability of expanded OPCs, compound at 1 µM, sheet All Tox data
# [6] = read-out: 10 µM (% DMSO), alamarBlue viability of expanded OPCs, compound at 10 µM, sheet All Tox data
# [7] = 0.4 uM test compound, relative to quetiapine, read-out: OL differentiation, 0.4 uM (% Quet)
# [8] = test compound at 2 uM, MBP expression relative to quetiapine, NCC library screen, read-out: 2 uM (% Quet)
# [9] = alamarBlue viability of expanded OPCs, compound at 0.1 µM, relative to DMSO control
# [10] = alamarBlue viability of expanded OPCs, compound at 1 µM, relative to DMSO control
# [11] = alamarBlue viability of expanded OPCs, compound at 10 µM, relative to DMSO control
# [12] = read-out: 0.1 µM (% DMSO), alamarBlue viability, NCC library compound at 0.1 µM, sheet "All Tox data"
# [13] = read-out: 1 µM (% DMSO), alamarBlue viability, NCC library compound at 1 µM, sheet "All Tox data"
# [14] = read-out: 10 µM (% DMSO), alamarBlue viability, NCC library compound at 10 µM, sheet "All Tox data"
# [15] = test compound at 2 uM, NCC library screen, relative to quetiapine, read-out: 2 uM (% Quet)
# [16] = test compound at 10 uM, NCC library screen, relative to quetiapine, read-out: 10 uM (% Quet)
compound,measurement,setting,value
NC(=O)OCCCc1ccccc1 [Phenprobamate],activation at 2 µM,[1]; [2],26.9%
same,activation at 10 µM,[1]; [3],12.1%
same,viability at 0.1 µM,expanded OPCs; [4],96%
same,viability at 1 µM,expanded OPCs; [5],95.1%
same,viability at 10 µM,expanded OPCs; [6],92.7%
COc1ccc2c(c1)[C@]13CCCC[C@@H]1[C@H](C2)N(C)CC3 [Dextromethorphan],activation at 0.4 µM,[1]; [7],10.5%
same,activation at 2 µM,[1]; [2],44.5%
same,viability at 0.1 µM,expanded OPCs; [4],82.6%
same,viability at 1 µM,expanded OPCs; [5],86.9%
same,viability at 10 µM,expanded OPCs; [6],59.6%
Nc1nc(Cl)nc2c1ncn2[C@@H]1O[C@H](CO)[C@@H](O)[C@H]1O [2-Chloroadenosine],"OL differentiation, 2 uM (% Quet)","[1]; 2 uM test compound, relative to quetiapine",8.0 % Quet
same,"OL differentiation, 10 uM (% Quet)","[1]; 10 uM test compound, relative to quetiapine",32.5 % Quet
same,0.1 µM (% DMSO),"expanded OPCs; alamarBlue viability, NCC library compound at 0.1 µM, sheet ""All Tox data""",113.1 % DMSO
same,1 µM (% DMSO),"expanded OPCs; alamarBlue viability, NCC library compound at 1 µM, sheet ""All Tox data""",99.2 % DMSO
same,10 µM (% DMSO),"expanded OPCs; alamarBlue viability, NCC library compound at 10 µM, sheet ""All Tox data""",99.5 % DMSO
Cc1nccn1CC1CCc2c(c3ccccc3n2C)C1=O (centres unmarked) [Ondansetron],activation at 2 µM,[1]; [2],4.2%
same,activation at 10 µM,[1]; [3],-7.7%
same,activation at 2 µM,[1]; [8],3%
same,activation at 10 µM,"[1]; test compound at 10 uM, MBP expression relative to quetiapine, NCC library screen, read-out: 10 uM (% Quet)",3.5%
same,viability at 0.1 µM,expanded OPCs; [4],92.9%
same,viability at 1 µM,expanded OPCs; [5],92.2%
same,viability at 10 µM,expanded OPCs; [6],102%
same,0.1 µM (% DMSO),expanded OPCs; [9],95.7 % DMSO
same,1 µM (% DMSO),expanded OPCs; [10],92.7 % DMSO
same,10 µM (% DMSO),expanded OPCs; [11],90.9 % DMSO
Cc1nc2ccccn2c(=O)c1CCN1CCC(C(=O)c2ccc(F)cc2)CC1 [Pirenperone],activation at 2 µM,[1]; [2],31.6%
same,activation at 10 µM,[1]; [3],62.7%
same,viability at 0.1 µM,expanded OPCs; [12],102%
same,viability at 1 µM,expanded OPCs; [13],92.1%
same,viability at 10 µM,expanded OPCs; [14],83%
C[C@]12Cc3c[nH]nc3C[C@@H]1CC[C@@H]1[C@@H]2CC[C@@]2(C)[C@H]1CC[C@]2(C)O [Stanozolol],activation at 0.4 µM,"[1]; test compound at 0.4 uM, NCC library screen, relative to quetiapine, read-out: 0.4 uM (% Quet)",6.5%
same,activation at 2 µM,[1]; [15],42.2%
same,viability at 0.1 µM,expanded OPCs; [12],91.1%
same,viability at 1 µM,expanded OPCs; [13],92.6%
same,viability at 10 µM,expanded OPCs; [14],61.7%
CN1CCN(C2=Nc3cc(Cl)ccc3Nc3ccccc32)CC1 [Clozapine],activation at 0.4 µM,"[1]; test compound at 0.4 uM, MBP expression relative to quetiapine, NCC library screen, read-out: 0.4 uM (% Quet)",-5.6%
same,activation at 2 µM,[1]; [8],-39.3%
same,0.1 µM (% DMSO),expanded OPCs; [9],78.7 % DMSO
same,1 µM (% DMSO),expanded OPCs; [10],61.3 % DMSO
same,10 µM (% DMSO),expanded OPCs; [11],24.6 % DMSO
CCN(CC)C(=S)SSC(=S)N(CC)CC [Disulfiram],activation at 0.4 µM,[1]; [7],-180%
same,viability at 0.1 µM,expanded OPCs; [4],22.6%
same,viability at 1 µM,expanded OPCs; [5],18.1%
same,viability at 10 µM,expanded OPCs; [6],13.8%
COc1ccccc1N1CCN(CCCNc2cc(=O)n(C)c(=O)n2C)CC1 [Urapidil],activation at 2 µM,[1]; [2],24.2%
same,activation at 10 µM,[1]; [3],8.4%
same,viability at 0.1 µM,expanded OPCs; [4],84.5%
same,viability at 1 µM,expanded OPCs; [5],89.8%
same,viability at 10 µM,expanded OPCs; [6],96.2%
CCOc1ccc2ccccc2c1C(=O)N[C@@H]1C(=O)N2[C@@H]1SC(C)(C)[C@@H]2C(=O)O [Nafcillin],activation at 2 µM,[1]; [15],-20.5%
same,activation at 10 µM,[1]; [16],0.11%
same,0.1 µM (% DMSO),expanded OPCs; [9],104.4 % DMSO
same,1 µM (% DMSO),expanded OPCs; [10],94.8 % DMSO
same,10 µM (% DMSO),expanded OPCs; [11],90.0 % DMSO
CCOC(=O)N1CCC(=C2c3ccc(Cl)cc3CCc3cccnc32)CC1 [Loratadine],activation at 0.4 µM,[1]; [7],5.6%
same,activation at 2 µM,[1]; [2],-36.8%
same,viability at 0.1 µM,expanded OPCs; [4],90.8%
same,viability at 1 µM,expanded OPCs; [5],77.7%
same,viability at 10 µM,expanded OPCs; [6],13.9%
CN(C)CCOC(c1ccccc1)c1ccccc1 [Diphenhydramine],activation at 2 µM,[1]; [2],3.5%
same,activation at 10 µM,[1]; [3],30%
same,viability at 0.1 µM,expanded OPCs; [4],79.3%
same,viability at 1 µM,expanded OPCs; [5],80%
same,viability at 10 µM,expanded OPCs; [6],62.4%
CCN1CC(CCN2CCOCC2)C(c2ccccc2)(c2ccccc2)C1=O (centres unmarked) [Doxapram],activation at 2 µM,[1]; [15],-8.9%
same,activation at 10 µM,[1]; [16],14.8%
same,viability at 0.1 µM,expanded OPCs; [12],89%
same,viability at 1 µM,expanded OPCs; [13],89.2%
same,viability at 10 µM,expanded OPCs; [14],79.9%
C#C[C@]1(OC(C)=O)CC[C@H]2[C@@H]3CCC4=CC(=O)CC[C@@H]4[C@H]3CC[C@@]21C [Norethisterone acetate],activation at 2 µM,[1]; [15],-15%
same,activation at 10 µM,[1]; [16],-14.3%
same,viability at 0.1 µM,expanded OPCs; [12],103%
same,viability at 1 µM,expanded OPCs; [13],93.1%
same,viability at 10 µM,expanded OPCs; [14],101%
